Active and inactive are the calls of the source.
Legend:
[1] = molecular target: NADPH oxidase 1 (Homo sapiens, UniProt Q9Y5S8); assay: Late-stage luminescence-based cell-based dose response assay to identify inhibitors of NADPH oxidase 1 (NOX1): Purchased analogs 2.; assay type: functional
[2] = molecular target: Induced myeloid leukemia cell differentiation protein Mcl-1 (Homo sapiens, UniProt Q07820); assay type: functional
[3] = molecular target: Bifunctional protein GlmU (Mycobacterium tuberculosis, UniProt P9WMN3); assay: Inhibitors of Mycobacterial Glucosamine-1-phosphate acetyl transferase (GlmU). Secondary screen.; parameters: species or system Mycobacterium tuberculosis H37Rv
[4] = Luminescence Cell-Based Dose-Confimation HTS to Identify Inhibitors of 5'UTR Stem-Loop Driven Alpha-Synuclein mRNA Translation in H4 Neuroglioblastoma Cells. [Related pubchem assays: 1827 (Project Summary), 1813 (Primary HTS)]; assay type: functional
[5] = molecular target: G-protein coupled receptor 55 (Homo sapiens, UniProt Q9Y2T6); assay: selective activators of receptor GPR55 – imaging, U2OS cells, beta-arrestin-GFP redistribution, primary screen (AID 1961); assay type: functional
[6] = molecular target: Photoreceptor-specific nuclear receptor (Homo sapiens, UniProt Q9Y5X4); assay: ligands suppressing NR2E3 nuclear receptor activity – biochemical, TR-FRET, dose response (AID 463256); assay type: functional
[7] = molecular target: Peroxisome proliferator-activated receptor gamma/Nuclear receptor corepressor 2 (Homo sapiens, UniProt P37231+Q9Y618); assay: Counterscreen for NR2E3 inverse agonists: TR-FRET-based biochemical high throughput dose response assay to identify inverse agonists of the interaction between peroxisome proliferator-activated receptor gamma (PPARg) and nuclear receptor co-repressor 2 (NCOR2).; assay type: functional
[8] = molecular target: T1, D(2) dopamine receptor (Homo sapiens, UniProt P14416); assay: human DRD2 long isoform antagonists – cell-based, D2L isoform, counter-screen for D4 antagonist project, confirmation (AID 743377); assay type: functional
[9] = molecular target: D(1A) dopamine receptor (Homo sapiens, UniProt P21728); assay: Counterscreening of D4 Antagonists against Dopamine 1 (Human), Confirmatory Assay.; assay type: functional
[10] = molecular target: D(1B) dopamine receptor (Homo sapiens, UniProt P21918); assay: Counterscreening of D4 Antagonists against Dopamine 5 DRD5 (Human), Confirmatory Assay.; assay type: functional
[11] = molecular target: T1, D(2) dopamine receptor; assay: Counterscreening of D4 Antagonists against Dopamine 2S (Human), Confirmatory Assay.; assay type: functional
[12] = molecular target: D(3) dopamine receptor (Homo sapiens, UniProt P35462); assay: Counterscreening of D4 Antagonists against Dopamine 3 DRD3 (Human), Confirmatory Assay.; assay type: functional
[13] = molecular target: Galanin receptor type 2 (Homo sapiens, UniProt O43603); assay: Dose Response cell-based high-throughput screening assay to identify antagonists of galanin receptor 2 (GALR2). [Related pubchem assays: 828, 866 ]; assay type: functional
[14] = molecular target: Neuropeptide Y receptor type 2 (Homo sapiens, UniProt P49146); assay: Fluorescence-based cell-based high-throughput dose response assay for agonists of NPY-Y2. [Related pubchem assays: 1703 (Screening assay (CNGC inhibitors).), 1359 (Screening assay (NPY-Y2 potentiators or agonists).), 1304 (Screening assay (NPY-Y1 potentiators or agonists).), 1710 (Screening assay (NPY-Y2 agonists).), 1791 (Summary AID.)]; assay type: functional
[15] = system: HEK293; assay: Fluorescence-based counterscreen for potentiators or agonists of NPY-Y2: cell-based high-throughput dose response assay to identify inhibitors of cyclic nucleotide gated ion channel (CNGC) activity. In this assay, the parental HEK293 cell line transfected with a cyclic-nucleotide gated ion channel (CNGC)-based cAMP sensor is used to measure inhibition of isoproterenol-induced CNGC activity by test compound.; assay type: functional; details: Homo sapiens;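 further: stimulus is 1 µM isoproterenol at EC100 plus PDE inhibitor Ro 20-1724 at 25 µM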
[16] = molecular target: Neuropeptide Y receptor type 1 (Homo sapiens, UniProt P25929); assay: Fluorescence-based counterscreen for agonists of NPY-Y2: cell-based high-throughput dose response assay for agonists of NPY-Y1.; assay type: functional
[17] = molecular target: Protein Tat (Human immunodeficiency virus type 1 group M subtype B (isolate HXB2)(HIV-1), UniProt P04608); assay type: functional;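 further: tat binding to TAR RNA read out by fluorescence polarization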
[18] = molecular target: Glutathione-S-transferase (Schistosoma japonicum, UniProt Q26513); assay: GST-antibody interaction or FRET quenching – biochemical, TR-FRET, artefact control for Vif-APOBEC3G degradation inhibitor project, dose response (AID 1117362); assay type: functional
[19] = molecular target: Oxytocin receptor (Homo sapiens, UniProt P30559); assay: Fluorescence-based cell-based high throughput dose response assay for agonists of the Oxytocin Receptor (OXTR). [Related pubchem assays: 2435 (Primary screen (OXTR agonists in singlicate)), 434991 (Counterscreen (V1R agonists in triplicate)), 2482 (Summary (OXTR agonists)), 434963 (Confirmation screen (OXTR agonists in triplicate))]; assay type: functional
[20] = molecular target: Vasopressin V1a receptor (Homo sapiens, UniProt P37288); assay: Counterscreen for Oxytocin Receptor (OXTR) agonists: Fluorescence-based cell-based high throughput dose response assay to identify agonists of the vasopressin 1 receptor (V1R). [Related pubchem assays: 2435 (Primary screen (OXTR agonists in singlicate)), 434991 (Counterscreen (V1R agonists in triplicate)), 2482 (Summary (OXTR agonists)) …; assay type: functional
[21] = molecular target: Mitogen-activated protein kinase 10 (Homo sapiens, UniProt P53779); assay: Dose response biochemical screening assay for inhibitors of c-Jun N-Terminal Kinase 3 (JNK3). [Related pubchem assays: 746 ]
[22] = molecular target: Peroxisome proliferator-activated receptor gamma/Nuclear receptor coactivator 3 (Homo sapiens, UniProt P37231); assay type: functional;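 further: agonist potency for raising coactivator recruitment to the receptor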
[23] = molecular target: Peroxisome proliferator-activated receptor gamma/Nuclear receptor coactivator 2 (Homo sapiens, UniProt P37231); assay type: functional;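 further: agonist potency for raising coactivator recruitment to the receptor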
[24] = molecular target: Peroxisome proliferator-activated receptor gamma/Nuclear receptor coactivator 1 (Homo sapiens, UniProt P37231); assay type: functional;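 further: agonist potency as compounds enhance coactivator SRC-1 recruitment to PPARgamma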
[25] = molecular target: Ubiquitin carboxyl-terminal hydrolase BAP1 (Homo sapiens, UniProt Q92560); assay: inhibition of BAP1 ubiquitin hydrolase activity – biochemical, dose response (AID 714); assay type: functional
[26] = molecular target: E3 ubiquitin-protein ligase Mdm2 (Homo sapiens, UniProt Q00987); assay: MDM2-luc reporter signal enhancers, multi-concentration potency testing, MDM2 ubiquitin-protein ligase inhibitor program, whole-cell format, luminescence detection, 384-well microplate (AID 1394); assay type: functional;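 further: MDM2 E3 inhibitors raise luminescence so EC50 is for signal enhancement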

T1 sequence (P14416 whole entry, canonical isoform): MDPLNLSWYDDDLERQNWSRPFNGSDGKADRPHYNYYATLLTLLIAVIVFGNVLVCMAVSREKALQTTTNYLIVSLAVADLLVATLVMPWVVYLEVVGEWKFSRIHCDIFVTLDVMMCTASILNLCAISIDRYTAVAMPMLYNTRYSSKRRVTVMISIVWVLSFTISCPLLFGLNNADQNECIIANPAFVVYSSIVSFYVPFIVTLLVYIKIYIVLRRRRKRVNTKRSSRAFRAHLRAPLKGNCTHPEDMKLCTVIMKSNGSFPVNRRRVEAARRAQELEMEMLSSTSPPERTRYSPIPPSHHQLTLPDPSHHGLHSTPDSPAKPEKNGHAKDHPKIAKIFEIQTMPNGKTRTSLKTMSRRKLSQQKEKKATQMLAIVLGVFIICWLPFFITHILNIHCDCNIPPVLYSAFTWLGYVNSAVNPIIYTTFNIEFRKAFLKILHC
Induced myeloid leukemia cell differentiation protein Mcl-1, sequence (Q07820 whole entry): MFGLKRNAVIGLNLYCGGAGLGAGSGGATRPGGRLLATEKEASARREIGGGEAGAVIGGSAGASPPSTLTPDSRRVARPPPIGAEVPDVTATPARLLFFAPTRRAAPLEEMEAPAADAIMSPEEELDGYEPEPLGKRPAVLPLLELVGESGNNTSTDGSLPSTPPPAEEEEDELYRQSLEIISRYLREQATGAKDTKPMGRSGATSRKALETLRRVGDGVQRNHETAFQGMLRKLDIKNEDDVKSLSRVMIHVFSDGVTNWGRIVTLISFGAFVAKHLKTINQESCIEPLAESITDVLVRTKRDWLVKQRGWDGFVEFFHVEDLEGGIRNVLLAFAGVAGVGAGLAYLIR
Mitogen-activated protein kinase 10, sequence (P53779 whole entry): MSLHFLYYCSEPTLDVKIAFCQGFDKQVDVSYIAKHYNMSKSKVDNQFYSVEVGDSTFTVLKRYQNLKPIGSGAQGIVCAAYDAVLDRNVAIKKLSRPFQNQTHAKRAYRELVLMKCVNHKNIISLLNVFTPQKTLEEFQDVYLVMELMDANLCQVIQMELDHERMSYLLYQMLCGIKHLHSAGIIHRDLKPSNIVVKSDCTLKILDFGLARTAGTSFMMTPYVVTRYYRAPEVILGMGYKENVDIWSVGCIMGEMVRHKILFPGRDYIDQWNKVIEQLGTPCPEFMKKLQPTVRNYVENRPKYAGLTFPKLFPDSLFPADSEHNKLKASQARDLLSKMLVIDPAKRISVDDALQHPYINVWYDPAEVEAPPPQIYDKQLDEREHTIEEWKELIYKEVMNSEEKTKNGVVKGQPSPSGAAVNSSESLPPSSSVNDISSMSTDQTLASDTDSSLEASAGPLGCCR
Vasopressin V1a receptor, sequence (P37288 whole entry): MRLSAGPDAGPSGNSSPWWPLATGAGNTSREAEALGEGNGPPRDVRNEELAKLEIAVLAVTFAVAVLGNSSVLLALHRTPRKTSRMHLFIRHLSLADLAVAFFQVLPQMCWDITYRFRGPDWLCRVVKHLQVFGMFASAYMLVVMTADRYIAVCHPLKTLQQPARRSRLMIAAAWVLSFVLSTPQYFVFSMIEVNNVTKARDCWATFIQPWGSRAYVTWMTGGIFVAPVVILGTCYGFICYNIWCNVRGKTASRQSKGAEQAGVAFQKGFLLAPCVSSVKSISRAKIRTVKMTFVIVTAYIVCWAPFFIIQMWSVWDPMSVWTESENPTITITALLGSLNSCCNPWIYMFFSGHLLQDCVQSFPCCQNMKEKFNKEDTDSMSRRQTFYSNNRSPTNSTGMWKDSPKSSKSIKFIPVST
Protein Tat, sequence (P04608 whole entry): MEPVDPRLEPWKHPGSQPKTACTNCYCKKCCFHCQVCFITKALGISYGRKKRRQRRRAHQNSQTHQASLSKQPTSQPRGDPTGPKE
Photoreceptor-specific nuclear receptor, sequence (Q9Y5X4 whole entry): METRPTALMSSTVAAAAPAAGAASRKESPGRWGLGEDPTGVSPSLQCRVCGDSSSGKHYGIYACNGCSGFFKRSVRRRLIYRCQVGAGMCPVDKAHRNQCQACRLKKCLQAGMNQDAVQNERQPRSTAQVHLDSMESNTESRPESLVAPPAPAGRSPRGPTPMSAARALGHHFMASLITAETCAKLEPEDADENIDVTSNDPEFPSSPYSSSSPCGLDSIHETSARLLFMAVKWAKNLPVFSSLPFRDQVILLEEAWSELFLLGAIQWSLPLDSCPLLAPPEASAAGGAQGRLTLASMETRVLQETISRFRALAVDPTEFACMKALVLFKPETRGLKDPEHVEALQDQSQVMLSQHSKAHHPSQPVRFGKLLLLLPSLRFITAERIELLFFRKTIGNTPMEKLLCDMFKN
G-protein coupled receptor 55, sequence (Q9Y2T6 whole entry): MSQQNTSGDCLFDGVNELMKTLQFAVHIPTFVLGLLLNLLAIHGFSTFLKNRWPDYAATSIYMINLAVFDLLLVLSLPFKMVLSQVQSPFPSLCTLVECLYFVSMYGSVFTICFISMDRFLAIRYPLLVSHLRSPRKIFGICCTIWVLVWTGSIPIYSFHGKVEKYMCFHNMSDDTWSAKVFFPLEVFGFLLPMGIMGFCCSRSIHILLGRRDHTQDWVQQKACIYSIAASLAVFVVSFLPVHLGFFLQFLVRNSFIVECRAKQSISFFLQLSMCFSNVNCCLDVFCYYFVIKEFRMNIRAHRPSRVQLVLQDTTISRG
Oxytocin receptor, sequence (P30559 whole entry): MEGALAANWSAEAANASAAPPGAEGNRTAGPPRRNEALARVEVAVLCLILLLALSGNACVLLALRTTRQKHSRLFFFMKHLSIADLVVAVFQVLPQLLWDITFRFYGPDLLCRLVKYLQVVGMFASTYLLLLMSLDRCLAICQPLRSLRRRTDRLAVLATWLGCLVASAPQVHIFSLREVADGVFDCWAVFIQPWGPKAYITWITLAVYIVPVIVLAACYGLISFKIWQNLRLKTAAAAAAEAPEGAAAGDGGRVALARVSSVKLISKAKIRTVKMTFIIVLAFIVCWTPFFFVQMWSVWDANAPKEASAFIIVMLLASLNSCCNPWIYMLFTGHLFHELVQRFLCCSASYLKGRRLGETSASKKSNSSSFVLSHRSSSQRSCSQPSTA
Ubiquitin carboxyl-terminal hydrolase BAP1, sequence (Q92560 whole entry): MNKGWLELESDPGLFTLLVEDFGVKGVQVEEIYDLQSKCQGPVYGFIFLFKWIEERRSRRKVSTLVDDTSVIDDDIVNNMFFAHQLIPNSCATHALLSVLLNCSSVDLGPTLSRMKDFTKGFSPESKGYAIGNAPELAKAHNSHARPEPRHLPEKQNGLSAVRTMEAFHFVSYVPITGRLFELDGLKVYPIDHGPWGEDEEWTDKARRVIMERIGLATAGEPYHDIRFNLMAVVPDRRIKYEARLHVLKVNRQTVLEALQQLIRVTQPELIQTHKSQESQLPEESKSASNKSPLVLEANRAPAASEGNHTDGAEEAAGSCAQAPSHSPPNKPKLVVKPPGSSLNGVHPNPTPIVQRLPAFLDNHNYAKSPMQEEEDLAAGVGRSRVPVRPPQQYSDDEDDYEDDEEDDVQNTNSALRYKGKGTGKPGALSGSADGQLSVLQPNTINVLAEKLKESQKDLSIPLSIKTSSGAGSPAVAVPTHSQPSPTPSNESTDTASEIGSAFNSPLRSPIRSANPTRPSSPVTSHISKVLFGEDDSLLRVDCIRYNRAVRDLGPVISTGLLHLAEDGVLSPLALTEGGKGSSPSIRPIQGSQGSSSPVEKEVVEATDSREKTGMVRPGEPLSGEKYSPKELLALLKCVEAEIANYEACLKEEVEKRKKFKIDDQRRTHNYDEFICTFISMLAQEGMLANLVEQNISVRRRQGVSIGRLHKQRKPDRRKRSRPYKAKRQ
Galanin receptor type 2, sequence (O43603 whole entry): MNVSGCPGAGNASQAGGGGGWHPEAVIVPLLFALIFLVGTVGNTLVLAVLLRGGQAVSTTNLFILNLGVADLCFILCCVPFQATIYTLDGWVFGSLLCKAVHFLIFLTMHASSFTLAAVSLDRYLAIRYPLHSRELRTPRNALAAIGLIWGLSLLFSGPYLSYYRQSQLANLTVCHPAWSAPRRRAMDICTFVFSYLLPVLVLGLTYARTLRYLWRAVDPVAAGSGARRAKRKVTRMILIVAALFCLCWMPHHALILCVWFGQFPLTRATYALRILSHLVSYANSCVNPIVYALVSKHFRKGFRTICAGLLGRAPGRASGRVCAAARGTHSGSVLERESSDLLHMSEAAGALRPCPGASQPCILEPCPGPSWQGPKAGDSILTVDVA
Glutathione-S-transferase, sequence (Q26513 whole entry): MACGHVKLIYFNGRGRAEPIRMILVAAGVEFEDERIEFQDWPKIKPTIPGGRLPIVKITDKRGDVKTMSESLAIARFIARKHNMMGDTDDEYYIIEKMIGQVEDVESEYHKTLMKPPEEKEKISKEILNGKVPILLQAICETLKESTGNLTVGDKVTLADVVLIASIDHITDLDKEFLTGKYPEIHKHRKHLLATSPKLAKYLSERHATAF
NADPH oxidase 1, sequence (Q9Y5S8 whole entry): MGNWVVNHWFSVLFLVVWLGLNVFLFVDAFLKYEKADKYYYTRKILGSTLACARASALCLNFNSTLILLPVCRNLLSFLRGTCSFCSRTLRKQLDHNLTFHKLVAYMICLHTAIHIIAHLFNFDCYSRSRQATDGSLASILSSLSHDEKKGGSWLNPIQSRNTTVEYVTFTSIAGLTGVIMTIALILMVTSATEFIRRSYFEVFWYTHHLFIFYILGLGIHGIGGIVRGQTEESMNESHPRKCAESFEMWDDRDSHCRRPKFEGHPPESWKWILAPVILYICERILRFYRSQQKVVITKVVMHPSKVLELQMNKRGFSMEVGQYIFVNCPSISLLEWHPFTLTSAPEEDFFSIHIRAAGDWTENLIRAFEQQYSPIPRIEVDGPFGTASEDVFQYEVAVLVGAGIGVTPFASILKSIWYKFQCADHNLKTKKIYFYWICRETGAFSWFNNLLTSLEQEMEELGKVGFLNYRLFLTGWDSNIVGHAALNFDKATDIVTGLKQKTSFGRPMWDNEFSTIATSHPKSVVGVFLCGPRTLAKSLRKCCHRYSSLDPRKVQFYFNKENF

O=C(Oc1ccccc1)c1cc2cc([N+](=O)[O-])ccc2s1
IC50 [1]: > 17 µM (not active)

O=C1OCC2OC(O)C(O)C(O)C2OC(=O)c2cc(O)c(O)c(O)c2-c2c(O)c(O)c3oc(=O)c4c(c(O)c(O)c5oc(=O)c2c3c54)-c2c1cc(O)c(O)c2O (configuration not stated)
IC50 [2]: 1.56 µM (active) | IC50 [3]: < 1 µM (active)

Nc1nc(CSc2nnnn2-c2ccccc2)nc(Nc2ccccc2)n1
EC50 [4]: 15.5 µM (active)

COc1cccc2sc(NC(=O)c3ccc(Br)s3)nc12
EC50 [5]: > 32 µM (inactive) | IC50 [6]: 3.41 µM (active) | IC50 [7]: 2.95 µM (active)

COc1ccc(CN2CCO[C@@H](CCc3ccccc3)C2)cc1
IC50 [8]: 16.5 µM (active) | IC50 [9]: 20 µM (inactive) | IC50 [10]: 20 µM (inactive) | IC50 [11]: 20 µM (inactive) | IC50 [12]: 8.17 µM (active)

CCOC(=O)COc1ccc(S(=O)(=O)NCc2ccncc2)cc1
IC50 [13]: > 42 µM (not active)

c1ccc(CSc2nc3c[nH]cnc-3n2)cc1
EC50 [14]: > 35.4 µM (not active) | EC50 [15]: > 35.4 µM (not active) | EC50 [16]: > 35.4 µM (not active)

CC1=Nc2cccc3cccc(c23)N1
IC50 [17]: > 100 µM (inconclusive) | IC50 [18]: > 100 µM (active) | IC50 [2]: 3.71 µM (active)

Oc1ccc(Cl)cc1CNCc1ccc(F)cc1
EC50 [19]: 15.5 µM (not active) | EC50 [20]: 11 µM (not active)

Cc1oc2ccc(OCC(N)=O)cc2c1C(=O)OC(C)C
IC50 [21]: 44.9 µM (not active)

CCc1nc(SCC(=O)Nc2ccc3c(c2)OCCO3)c2oc3ccccc3c2n1
EC50 [22]: > 79.4 µM (not active) | EC50 [23]: 23.3 µM (not active) | EC50 [24]: > 79.4 µM (not active) | IC50 [25]: 13.9 µM (active)

Cc1ccc(-n2c(C)cc(C=C3C(=O)CC(C)(C)CC3=O)c2C)cc1
EC50 [26]: 17.4 µM (not active)
